Measured values published in patent US7173004B2, “Macrocyclic isoquinoline peptide inhibitors of hepatitis C virus” (Bristol-Myers Squibb Company, priority 2003, dated 2007).

These compounds were tested against T1, HCV NS3/4A protease complex, BMS strain (genotype 1a) (UniProt P27958, C1454S/C1711G, species not given/STRAIN_BMS) (assay: Recombinant HCV NS3/4A protease complex FRET peptide assay, BMS strain). Conditions: NS3/4A BMS strain; activity range symbols.
T1 construct: b1001: DNA encoding the recombinant HCV NS3/4A protease complex (amino acids 1027 to 1711) ... a three-lysine solubilizing tail was added at the 3′-end of the NS4A coding region; fused on or other part: Three-lysine solubilising tail at the C-terminus of NS4A; A His tag is implied by the pET21b vector and Ni-NTA purification
Format: biochemical
Procedure, shortened: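 Recombinant NS3/4A (aa 1027–1711) from H77C, J4L6S or BMS strains, with C1454S and C1711G mutations and three-lysine tail, expressed in E. coli and Ni-NTA/gel-filtration purified to >90%. Inhibition of cleavage of a FRET peptide substrate measured.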

SMILES | IC50 [nM]
O=C(NC1CCCC1)NC1CCCCCC=CC2CC2(C(=O)NS(=O)(=O)C2CC2)NC(=O)C2CC(Oc3nccc4ccccc34)CN2C1=O (stereo not drawn) [Compound 127] | < 50
CC(=O)C(C)(C)OC(=O)NC1CCCCCC=CC2CC2(C(=O)NS(=O)(=O)C2CC2)NC(=O)C2CC(Oc3nccc4ccccc34)CN2C1=O (stereo not drawn) [Compound 123] | < 50
COc1ccc2c(OC3CC4C(=O)NC5(C(=O)NS(=O)(=O)C6CC6)CC5C=CCCCOCC(NC(=O)OCC(C)(C)C)C(=O)N4C3)nccc2c1 (stereo not drawn) [Compound 88] | < 50
COc1ccc2c(O[C@@H]3C[C@H]4C(=O)N[C@]5(C(=O)NS(=O)(=O)C6CC6)C[C@H]5/C=C\COCC[C@H](NC(=O)OC(C)(C)C)C(=O)N4C3)nccc2c1 [Compound 141, [(Z)-(1S,4R,13S,17R)-4-cyclopropanesulfonylaminocarbonyl-17-(6-methoxy-isoquinolin-1-yloxy)-2,14-dioxo-10-oxa-3,15-diaza-tricyclo[13.3.0.0^4,6]octadec-7-en-13-yl]-carbamic acid tert-butyl ester] | 50 to 500
COc1ccc2c(OC3CC4C(=O)NC5(C(=O)NS(=O)(=O)C6CC6)CC5C=CCOCCCC(NC(=O)OC(C)C)C(=O)N4C3)nc(-c3ccccc3)cc2c1 (stereo not drawn) [Compound 98] | < 50
COc1ccc2c(OC3CC4C(=O)NC5(C(=O)NS(=O)(=O)C6CC6)CC5C=CCCCOCC(NC(=O)N5CCCC5)C(=O)N4C3)nc(-c3ccccc3)cc2c1 (stereo not drawn) [Compound 93] | < 50
COc1ccc2c(OC3CC4C(=O)NC5(C(=O)NS(=O)(=O)C6CC6)CC5C=CCCCOCC(NC(=O)OC(C)C)C(=O)N4C3)nccc2c1 (stereo not drawn) [Compound 89] | < 50
CC(=O)N1CCC/C=C\[C@@H]2C[C@@]2(C(=O)NS(=O)(=O)C2CC2)NC(=O)[C@@H]2C[C@@H](Oc3nccc4ccccc34)CN2C(=O)[C@@H](NC(=O)OC(C)(C)C)C1 [Compound 146] | < 50
COc1ccc2c(OC3CC4C(=O)NC5(C(=O)NS(=O)(=O)C6CC6)CC5C=CCCCCCC(NC(=O)OC(C)(C)C)C(=O)N4C3)nccc2c1F (stereo not drawn) [Compound 132] | < 50
CC(C)(C)NC(=O)N1CCC/C=C\[C@@H]2C[C@@]2(C(=O)NS(=O)(=O)C2CC2)NC(=O)[C@@H]2C[C@@H](Oc3nccc4ccccc34)CN2C(=O)[C@@H](NC(=O)OC(C)(C)C)C1 [Compound 150] | < 50
COc1ccc2c(OC3CC4C(=O)NC5(C(=O)NS(=O)(=O)C6CC6)CC5C=CCCCCCC(NC(=O)NC5CCCC5)C(=O)N4C3)nccc2c1 (stereo not drawn) [Compound 136] | < 50
COc1ccc2c(OC3CC4C(=O)NC5(C(=O)NS(=O)(=O)C6CC6)CC5C=CCOCCCC(NC(=O)OCC(C)(C)C)C(=O)N4C3)nc(-c3ccccc3)cc2c1 (stereo not drawn) [Compound 103] | < 50
